Results published in ChEMBL document CHEMBL3612049, “Design, synthesis and molecular docking of salicylic acid derivatives containing metronidazole as a new class of antimicrobial agents” (Bioorg Med Chem, 2015).
Converted amounts (≈) assume the structure as drawn.

Assays:
Pseudomonas aeruginosa = test: Antimicrobial activity against Pseudomonas aeruginosa ATCC 13525 after 18 hrs by broth microdilution method; type: functional; conditions: ATCC 13525, 18 h
Bacillus spizizenii = test: Antimicrobial activity against Bacillus subtilis ATCC 6633 after 18 hrs by broth microdilution method; type: functional; conditions: ATCC 6633, 18 h
Escherichia coli = test: Antimicrobial activity against Escherichia coli ATCC 35218 after 18 hrs by broth microdilution method; type: functional; conditions: ATCC 35218, 18 h
Staphylococcus aureus = test: Antimicrobial activity against Staphylococcus aureus ATCC 6538 after 18 hrs by broth microdilution method; type: functional; conditions: ATCC 6538, 18 h
[1] = Inhibition of Staphylococcus aureus TyrRS expressed in Escherichia coli BL21 using L-[ring-3,5-3H]-tyrosine preincubated for 10 mins by liquid scintillation counting
[2] = Cytotoxicity against human macrophages after 24 hrs by MTT assay; type: cell-based, Macrophage
[3] = Hemolytic activity in human erythrocytes assessed as hemoglobin release after 3 hrs by spectrophotometric analysis; type: ADME, cell-based, Erythrocyte; conditions: read-out: LC50

Compound O=C(N[C@H](CO)[C@H](O)c1ccc([N+](=O)[O-])cc1)C(Cl)Cl [CHLORAMPHENICOL] has an MIC (Pseudomonas aeruginosa) of 0.78 µg/mL (≈ 2.41 µM), an MIC (Bacillus spizizenii) of 1.57 µg/mL (≈ 4.86 µM) and an MIC (Escherichia coli) of 6.25 µg/mL (≈ 19.3 µM). For the same compound, the MIC (Staphylococcus aureus) was 1.57 µg/mL (≈ 4.86 µM).

For Cc1ncc([N+](=O)[O-])n1CCOC(=O)c1ccccc1OCc1cccc(F)c1, the IC50 [1] was 6.3 µM, the CC50 at 24 h [2] was 124 µM and the MIC (Pseudomonas aeruginosa) was 50 µg/mL (≈ 125 µM). The MIC (Bacillus spizizenii) was 25 µg/mL (≈ 62.6 µM), the MIC (Escherichia coli) was 50 µg/mL (≈ 125 µM) and the HC50 at 3 h [3] was > 10 µM. For the same compound, the MIC (Staphylococcus aureus) was 12.5 µg/mL (≈ 31.3 µM).

Cc1ncc([N+](=O)[O-])n1CCOC(=O)c1ccccc1OCc1cccc(Cl)c1F showed an IC50 [1] of 2.9 µM, a CC50 at 24 h [2] of 190 µM and an MIC (Pseudomonas aeruginosa) of 6.25 µg/mL (≈ 14.4 µM). For the same compound, the MIC (Bacillus spizizenii) was 1.57 µg/mL (≈ 3.62 µM), the MIC (Escherichia coli) was 12.5 µg/mL (≈ 28.8 µM) and the HC50 at 3 h [3] was > 10 µM. For the same compound, the MIC (Staphylococcus aureus) was 3.13 µg/mL (≈ 7.21 µM).

Compound COc1ccc(COc2ccccc2C(=O)OCCn2c([N+](=O)[O-])cnc2C)cc1 has an IC50 [1] of 2.9 µM, a CC50 at 24 h [2] of 239 µM and an MIC (Pseudomonas aeruginosa) of 6.25 µg/mL (≈ 15.2 µM). The MIC (Bacillus spizizenii) was 0.78 µg/mL (≈ 1.9 µM), the MIC (Escherichia coli) was 6.25 µg/mL (≈ 15.2 µM) and the HC50 at 3 h [3] was > 10 µM. For the same compound, the MIC (Staphylococcus aureus) was 1.57 µg/mL (≈ 3.82 µM).

Cc1ncc([N+](=O)[O-])n1CCOC(=O)c1ccccc1OCc1ccc(F)c(F)c1 gave an IC50 [1] of 6 µM, a CC50 at 24 h [2] of 256 µM and an MIC (Pseudomonas aeruginosa) of 100 µg/mL (≈ 240 µM). For the same compound, the MIC (Bacillus spizizenii) was 50 µg/mL (≈ 120 µM), the MIC (Escherichia coli) was 100 µg/mL (≈ 240 µM) and the HC50 at 3 h [3] was > 10 µM. The MIC (Staphylococcus aureus) was 25 µg/mL (≈ 59.9 µM).

Work on Cc1ncc([N+](=O)[O-])n1CCOC(=O)c1ccccc1OCc1ccc(Cl)c(F)c1 yielded an IC50 [1] of 3.2 µM, a CC50 at 24 h [2] of 180 µM and an MIC (Pseudomonas aeruginosa) of 6.25 µg/mL (≈ 14.4 µM). The MIC (Bacillus spizizenii) was 3.13 µg/mL (≈ 7.21 µM), the MIC (Escherichia coli) was 6.25 µg/mL (≈ 14.4 µM) and the HC50 at 3 h [3] was > 10 µM. It also gave an MIC (Staphylococcus aureus) of 3.13 µg/mL (≈ 7.21 µM).

With Cc1ncc([N+](=O)[O-])n1CCOC(=O)c1ccccc1OCc1ccccc1 the IC50 [1] was 5.6 µM, the CC50 at 24 h [2] was 231 µM and the MIC (Pseudomonas aeruginosa) was 50 µg/mL (≈ 131 µM). The MIC (Bacillus spizizenii) was 12.5 µg/mL (≈ 32.8 µM), the MIC (Escherichia coli) was 25 µg/mL (≈ 65.6 µM) and the HC50 at 3 h [3] was > 10 µM. The MIC (Staphylococcus aureus) was 12.5 µg/mL (≈ 32.8 µM).

Cc1ncc([N+](=O)[O-])n1CCOC(=O)c1ccccc1OCc1ccc(F)cc1 showed an IC50 [1] of 5.7 µM, a CC50 at 24 h [2] of 157 µM and an MIC (Pseudomonas aeruginosa) of 25 µg/mL (≈ 62.6 µM). The MIC (Bacillus spizizenii) was 12.5 µg/mL (≈ 31.3 µM), the MIC (Escherichia coli) was 25 µg/mL (≈ 62.6 µM) and the HC50 at 3 h [3] was > 10 µM. It also gave an MIC (Staphylococcus aureus) of 12.5 µg/mL (≈ 31.3 µM).

With Cc1ncc([N+](=O)[O-])n1CCOC(=O)c1ccccc1OCc1ccc(Cl)cc1 the IC50 [1] was 4.8 µM, the CC50 at 24 h [2] was 168 µM and the MIC (Pseudomonas aeruginosa) was 12.5 µg/mL (≈ 30.1 µM). The MIC (Bacillus spizizenii) was 12.5 µg/mL (≈ 30.1 µM), the MIC (Escherichia coli) was 25 µg/mL (≈ 60.1 µM) and the HC50 at 3 h [3] was > 10 µM. It also gave an MIC (Staphylococcus aureus) of 6.25 µg/mL (≈ 15 µM).

In the case of Cc1ncc([N+](=O)[O-])n1CCOC(=O)c1ccccc1OCc1cccc(C(F)(F)F)c1, the IC50 [1] is reported as 8.3 µM, the CC50 at 24 h [2] is reported as 251 µM and the MIC (Pseudomonas aeruginosa) is reported as 100 µg/mL (≈ 223 µM). The MIC (Bacillus spizizenii) was 100 µg/mL (≈ 223 µM), the MIC (Escherichia coli) was 100 µg/mL (≈ 223 µM) and the HC50 at 3 h [3] was > 10 µM. For the same compound, the MIC (Staphylococcus aureus) was 50 µg/mL (≈ 111 µM).

For Cc1ncc([N+](=O)[O-])n1CCOC(=O)c1ccccc1OCc1ccccc1Cl, the IC50 [1] was 4.7 µM, the CC50 at 24 h [2] was 213 µM and the MIC (Pseudomonas aeruginosa) was 12.5 µg/mL (≈ 30.1 µM). The MIC (Bacillus spizizenii) was 6.25 µg/mL (≈ 15 µM), the MIC (Escherichia coli) was 6.25 µg/mL (≈ 15 µM) and the HC50 at 3 h [3] was > 10 µM. The MIC (Staphylococcus aureus) was 6.25 µg/mL (≈ 15 µM).

In the case of Cc1ncc([N+](=O)[O-])n1CCOC(=O)c1ccccc1OCc1ccc(C(F)(F)F)cc1, the IC50 [1] is reported as 6.3 µM, the CC50 at 24 h [2] is reported as 242 µM and the MIC (Pseudomonas aeruginosa) is reported as 50 µg/mL (≈ 111 µM). The MIC (Bacillus spizizenii) was 25 µg/mL (≈ 55.6 µM), the MIC (Escherichia coli) was 50 µg/mL (≈ 111 µM) and the HC50 at 3 h [3] was > 10 µM. It also gave an MIC (Staphylococcus aureus) of 25 µg/mL (≈ 55.6 µM).

In the case of CC1(C)S[C@@H]2[C@H](NC(=O)Cc3ccccc3)C(=O)N2[C@H]1C(=O)O [PENICILLIN G], the MIC (Pseudomonas aeruginosa) is reported as 6.25 µg/mL (≈ 18.7 µM), the MIC (Bacillus spizizenii) is reported as 0.78 µg/mL (≈ 2.33 µM) and the MIC (Escherichia coli) is reported as 6.25 µg/mL (≈ 18.7 µM). The MIC (Staphylococcus aureus) was 0.78 µg/mL (≈ 2.33 µM).
